Data: article PMC6467574 (Journal of controlled release : official journal of the …, 2018)
Like-named read-outs stand apart in the source and are kept apart here.

How the values were obtained:
[1] = Equilibrium solubility determination in test media; format: physicochemical; details: 37 °C; for Equilibrium solubility, effect of addition of mucin: 0.1, 0.2, 0.4 %w/v mucin in 10 mM phosphate buffer pH 6.50 relative to buffer; for Equilibrium solubility, effect of addition of 8 %w/v PIM: 8 %w/v native pig intestinal mucus in 10 mM phosphate buffer pH 6.50 relative to buffer
[2] = Supersaturation-precipitation; format: physicochemical; details: for Duration intended degree of drug supersaturation was maintained / Time to drug precipitation: base buffer, preliminary experiments, SSR 5 (CVDL) / 6 (PXM)
[3] = system: Caco-2 monolayers; details: human, 100 min
[4] = system: Caco-2:HT29-MTX-E12 co-culture monolayers; details: human, 100 min
[5] = 1 SSR (multiple of equilibrium solubility)
[6] = 5 SSR (multiple of equilibrium solubility)

SMILES | Equilibrium solubility, effect of addition of mucin [1] | Equilibrium solubility, effect of addition of 8 %w/v PIM [1] | Time drug remained supersaturated ([2]; SSR = 5, 8 %w/v native PIM, ISE) [h] | Time to precipitation (Tss), effect of increasing mucin concentration ([2]; SSR = 5, ISE, up to 0.2 %w/v mucin) | Time within which supersaturated drug precipitated (ISE) ([2]; SSR = 5, absence of mucus, ISE, average ± SEM, n=3) [min] | Time after which drug precipitated (HPLC) ([2]; SSR = 5, buffer solution, HPLC analysis) [min] | SSR maintained throughout the monitoring period ([2]; SSR = 5 induced, 0.4 %w/v mucin, ISE, 24 h) | SSR maintained throughout the monitoring period ([2]; SSR = 5 induced, 8 %w/v PIM, ISE, 24 h) | Duration intended degree of drug supersaturation was maintained [2] | Time to drug precipitation [2] [h] | TEER relative to starting value [3, 5] [% starting value] | TEER relative to starting value [3, 6] | TEER relative to starting value [4, 5] [% starting value] | TEER relative to starting value [4, 6] | Time after which drug started to precipitate ([2]; SSR = 6, buffer alone, HPLC) [h] | SSR reached at 24 h ([2]; SSR = 6 induced, buffer alone, HPLC) | SSR maintained throughout the monitoring period ([2]; SSR = 6 induced, presence of mucin (regardless of concentration) and PIM, HPLC)
COc1ccccc1OCCNCC(O)COc1cccc2[nH]c3ccccc3c12 (stereo not drawn) [CVDL, Carvedilol] | did not change | significantly increased | 24 | significantly increased | 19 ± 4 | > 10 | > 3 | > 3 | at least 5 min | ≤ 1 | > 80 | ~ 60 % starting value | > 80 | ~ 60 % starting value | – | – | –
CN1C(C(=O)Nc2ccccn2)=C(O)c2ccccc2S1(=O)=O [PXM, piroxicam] | appeared to increase | significantly increased | – | – | – | – | – | – | at least 5 min | ≤ 5 | – | – | – | – | > 5 | ~ 4 | 6
